Series [1] can be described thus: T1/2 in plasma (mouse). Format: in vitro ADME. To be noted: for stability compared with PEPITEM: in mouse plasma, human plasma, and or mouse blood; for half-life: mouse, plasma, 1 μM peptide, 37° C. The source says:
Take all measurements in duplicate.

Series [2] is classed as in vitro ADME, pig. How it is done: Pig eyes were treated with either […] or one of TVS (reverse sequence of SVT comprising amino acids in D-isomeric forms), […] and QGA, derived from the […] sequence. The eyes were then incubated in a dark humified chamber. The eyes were dissected, and the vitreous humour and retina were harvested. The samples were sonicated to break up the tissue and purified using a C18 column. Once purified, the samples were digested and analysed by mass spectrometry.

The test system of series [3] is PBLs on cytokine stimulated HDBECs. To be noted: for % Inhibition (3 nM): 3 nM peptide; for % Inhibition (3 nM) / % Inhibition (0.3 nM): inhibition of PBL transmigration (as a percentage of adherent cells); for effectiveness in inhibiting PBL transmigration compared with PEPITEM (% Inhibition at 0.3 and/or 3 nM): PEPITEM 41.90; for % Inhibition (0.3 nM): 0.3 nM peptide.
Protocol: Blood samples were obtained from consensual healthy donors and were collected in EDTA tubes (Sigma-Aldrich). […] 5 ml of blood was layered on top of the density gradient, and was centrifuged at 2500 rpm for 45 minutes. […] The PBMCs were washed twice for 7 minutes at 1500 rpm. Peripheral blood lymphocytes (PBLs) were isolated via panning PBMCs onto a culture flask for 30 minutes at 37° C., allowing monocytes to adhere.
HDBECS defrosted at 37° C. in a 25 cm^2 cell culture flask in 10 ml of media were dissociated using EDTA (Sigma-Aldrich) and Trypsin (Gibco) and seeded on 10 wells in a 12-well tissue culture plates (Falcon) and left to adhere at 37° C. After 24 hours, confluent endothelial layers were cytokine stimulated using 100 U/ml TNF-α (Sigma-Aldrich) and 10 ng/ml IFN-γ (Peprotech) for 24 hours at 37° C. The peptide treatment of the 1×10^6 cells/ml PBLs consisted of adding the peptides immediately before use. […] 1×10^6 PBLs were added to each well and incubated at 37° C., allowing PBLs to adhere to migrate across the endothelium. […] Cells were then fixed with 2% glutaraldehyde for 10 minutes and then imaged using phase-contrast microscopy via an inverted bright-field microscope at 20× magnification.
Imaging of the PBL migration assay was carried out using ImagePro 7 software (Media Cybernetics). Surface adherent cells were categorised as being phase-bright, and transmigrated cells were categorised as phase-dark with altered morphology, appearing as being under the endothelial layer. Images were taken at 5 different fields of each well, and an average of counted adherent and migrated PBLs was calculated.
The same methods described for the in vitro transmigration assay and analysis were used, and PBL transmigration was calculated as a percentage of adherent cells. Peptides were added to the PBLs at concentrations ranging from 0.0001-500 ng/ml on the cytokine stimulated HDBECs and the resulting PBL transmigration (as a percentage of adherent cells) was plotted as a function of log10 of the peptide concentration.
The peptides were added at concentration of 20 ng/ml and run alongside untreated PBL (PBL0) and scrambled protein to analyse their effects on adhesion and transmigration.

Series [4] is described as follows: T1/2 in blood (mouse).
Protocol: Store at −20° C. or on ice. • 2) Thaw the blood and spin in a centrifuge at 1500×g for 10 minutes at room temperature. • 3) Prepare stock solution of the peptide at 10 mM in DMSO or PBS and dilute solutions by adding 3 μL of 10 mM stock to 297 μL DMSO or PBS (100 μM stock for a final 1 μM concentration). • 4) Add 550 μL blood to an incubation tube and separately add 4 μL of peptide stock solution to an incubation tube. Warm the incubation tubes (5 minutes, 37° C., with shaking). • 5) After warming, add 396 μL of warmed blood to warmed peptide (time=0). Mix well and shake the tube containing the mixed sample (37° C., 1400×g). • 6) At 2, 5, 15, 30, 45 and 60 minutes after contacting the peptide and blood, collect 40 μL of the sample into pre-prepared quench tubes. • 7) Analyse the sample at each time point by mass spectrometry. Take all measurements in duplicate.
The samples were analysed and the T1/2 values were calculated by XenoGesis. The T1/2 values correspond to the time taken for the concentration of the peptide in the blood or plasma to be reduced by 50%.
The test system of series [5] is primary murine calvarial osteoblasts. The series is described as follows: Alkaline phosphatase activity, murine osteoblasts. Format: cell-based, mouse. To be noted: 8 days, vs untreated cells, FIG. 5b. How it is done:
Skin was removed from around calvaria using forceps, and the calvaria was dissected out and cleaned of any contaminating tissue. Calvaria were added to αMEM media supplemented with 1 mg/ml of collagenase d (Roche, Basel, Switzerland, COLLD-RO). Tubes were then agitated at 37° C. for 10 minutes and the media discarded. αMEM media supplemented with 1 mg/ml of collagenase d was again added to calvaria and shaken at 37° C. for 30 minutes. Media (containing cells) was then removed and kept on ice. The calvaria were then again shaken at 37° C. for 10 minutes in 1.5 ml of αMEM media supplemented with 5 μM EDTA (Sigma-Aldrich, E7889) and the cell containing media transferred to the sample on ice, pooling the cells. […] Cells on ice were then spun down at 300 g for 4 minutes, resuspended in 1 ml of Basal media and counted using a haemocytometer. […] Mineralisation was assessed by quantifying the level of alkaline phosphate (ALP) activity (absorbance at 405 nm) per condition normalized to the absorbance generated by the untreated control (control on the graph). […] The plate was wrapped in foil and left to run for 45 minutes at 37° C. in an incubated shaker (SciQuip; Shropshire, UK) before being quantified using a Synergy HT plate reader (BioTek) with absorbance set at 405 nm.

The record followed here is patent publication US20250361271A1, “PEPTIDE AGONIST” (THE UNIVERSITY OF BIRMINGHAM, priority 2022, published 2025).

Where a SMILES comes first, the peptide text is derived from it. [ ]: non-standard residue; d: D form. d(pGlu) = O=C1CC[C@H](C(=O)O)N1; pGlu = O=C1CC[C@@H](C(=O)O)N1; Aib = CC(C)(N)C(=O)O

As for `CC(C)[C@@H](NC(=O)[C@H](N)[C@H](C)O)C(=O)N[C@H](CO)C(N)=O` (relative stereo) [SEQ ID NO. 11, H-T*V*S*-NH2], in series [1], the “stability compared with PEPITEM” value was “at least as stable” and the half-life is > 3 h. Besides, the “eye tissue in which the peptide was found by mass spectrometry” value in series [2] is “Retina only”. The IC50 in series [3] came out at 0.024 nM.

Turning to `CC(=O)N[C@@H](CO)C(=O)N[C@H](C(=O)N[C@H](C(=O)O)[C@@H](C)O)C(C)C` [SEQ ID NO. 3, Ac-SVT] (Ac-Ser-Val-Thr-OH), in series [3], the “% Inhibition (3 nM)” value amounted to 36.80%.

Compound `CC(=O)N[C@@H](CO)C(=O)N[C@H](C(=O)N[C@H](C(N)=O)[C@@H](C)O)C(C)C` [SEQ ID NO. 5, Ac-SVT-NH2] (Ac-Ser-Val-Thr-NH2) came in with a half-life in series [1] of 1.98 h. For the same compound, in series [3], the “% Inhibition (3 nM)” value is listed as 42.50% and the “effectiveness in inhibiting PBL transmigration compared with PEPITEM (% Inhibition at 0.3 and/or 3 nM)” value was “more effective”.

In series [1], `CC(C)[C@H](NC(=O)[C@@H](N)[C@@H](C)O)C(=O)N[C@H](C(N)=O)[C@@H](C)O` [SEQ ID NO. 8, H-TVT-NH2] (H-Thr-Val-Thr-NH2) gave a half-life of 0.283 h. Besides, in series [3], the “% Inhibition (0.3 nM)” value is reported as 45.47%, the “% Inhibition (3 nM)” value came to 48.19% and the “effectiveness in inhibiting PBL transmigration compared with PEPITEM (% Inhibition at 0.3 and/or 3 nM)” value is “more effective”.

In turn, `CC(C)[C@H](NC(=O)[C@@H](N)CO)C(=O)N[C@@H](CO)C(N)=O` [SEQ ID NO. 9, H-SVS-NH2] (H-Ser-Val-Ser-NH2) showed a half-life in series [1] of 1.72 h. Further, in series [3], the “% Inhibition (0.3 nM)” value came out at 42.51%, the “% Inhibition (3 nM)” value was determined as 38.10% and the “effectiveness in inhibiting PBL transmigration compared with PEPITEM (% Inhibition at 0.3 and/or 3 nM)” value is on record as “more effective”.

As for `COC[C@H](N)C(=O)N[C@H](C(=O)N[C@H](C(N)=O)[C@@H](C)O)C(C)C` [SEQ ID NO. 12, H-S(OMe)VT-NH2] (H-Ser(Me)-Val-Thr-NH2), in series [3], the “% Inhibition (0.3 nM)” value worked out at 34.72%, the “% Inhibition (3 nM)” value came out at 62.27% and the “effectiveness in inhibiting PBL transmigration compared with PEPITEM (% Inhibition at 0.3 and/or 3 nM)” value was “more effective”.

As for `CCCCCCNC(=O)[C@@H](NC(=O)[C@@H](NC(=O)[C@@H](N)CO)C(C)C)[C@@H](C)O` [SEQ ID NO. 13, H-SVT-NH-Hexyl], in series [3], the “% Inhibition (0.3 nM)” value amounted to 23.56% and the “% Inhibition (3 nM)” value is recorded as 12.83%.

With `CC[C@H](C)[C@H](NC(=O)[C@@H](N)CO)C(=O)N[C@H](C(N)=O)[C@@H](C)O` [SEQ ID NO. 14, H-SIT-NH2] (H-Ser-Ile-Thr-NH2), in series [3], the “% Inhibition (0.3 nM)” value is given as 3.40% and the “% Inhibition (3 nM)” value was 28.23%.

Take `CC(C)C[C@H](NC(=O)[C@@H](N)CO)C(=O)N[C@H](C(N)=O)[C@@H](C)O` [SEQ ID NO. 15, H-SLT-NH2] (H-Ser-Leu-Thr-NH2): the half-life in series [1] was found to be 0.117 h. Moreover, in series [3], the “% Inhibition (0.3 nM)” value is listed as 46.00%, the “% Inhibition (3 nM)” value stood at 20.75% and the “effectiveness in inhibiting PBL transmigration compared with PEPITEM (% Inhibition at 0.3 and/or 3 nM)” value was “more effective”.

With `C[C@@H](O)[C@H](NC(=O)[C@H](Cc1ccccc1)NC(=O)[C@@H](N)CO)C(N)=O` [SEQ ID NO. 16, H-SFT-NH2] (H-Ser-Phe-Thr-NH2), in series [3], the “% Inhibition (0.3 nM)” value came out at 39.78% and the “% Inhibition (3 nM)” value is 33.33%.

In the case of `C[C@@H](O)[C@H](NC(=O)[C@H](Cc1ccc(O)cc1)NC(=O)[C@@H](N)CO)C(N)=O` [SEQ ID NO. 18, H-SYT-NH2] (H-Ser-Tyr-Thr-NH2), the half-life in series [1] is 0.283 h. Besides, in series [3], the “% Inhibition (0.3 nM)” value is 39.18%, the “% Inhibition (3 nM)” value came out at 42.83% and the “effectiveness in inhibiting PBL transmigration compared with PEPITEM (% Inhibition at 0.3 and/or 3 nM)” value was “more effective”.

Turning to `CCNC(=O)[C@H](C)NC(=O)CNC(=O)[C@@H]1CCC(=O)N1` [SEQ ID NO. 22, pEGA-NH-Ethyl] ([pGlu]-Gly-Ala-NHEt), the half-life in series [1] was > 3 h. Moreover, the “% Inhibition (0.3 nM)” value in series [3] worked out at 35.40%.

Regarding `C[C@H](NC(=O)CNC(=O)[C@@H]1CCC(=O)N1)C(N)=O` [SEQ ID NO. 23, pEGA-NH2] ([pGlu]-Gly-Ala-NH2), in series [1], the half-life was > 3 h. Also, in series [3], the IC50 was found to be 0.0032 nM, the “% Inhibition (0.3 nM)” value was 54.50% and the “effectiveness in inhibiting PBL transmigration compared with PEPITEM (% Inhibition at 0.3 and/or 3 nM)” value is listed as “more effective”. In addition, the “potency at inhibiting the transmigration of T cells compared with PEPITEM (IC50)” value in series [3] (PEPITEM IC50 0.02) is given as “more potent”.

`CCNC(=O)[C@H](C)NC(=O)CNC(=O)[C@H](CCC(N)=O)NC(C)=O` [SEQ ID NO. 24, Ac-QGA-NH-Ethyl] (Ac-Gln-Gly-Ala-NHEt): in series [3], the “% Inhibition (0.3 nM)” value worked out at 50.00% and the “effectiveness in inhibiting PBL transmigration compared with PEPITEM (% Inhibition at 0.3 and/or 3 nM)” value is “more effective”.

On to `CC(=O)N[C@@H](CCC(N)=O)C(=O)NCC(=O)NC(C)(C)C(=O)O` [SEQ ID NO. 25, Ac-QGAib] (Ac-Gln-Gly-[Aib]-OH), for which the “% Inhibition (0.3 nM)” value in series [3] is 32.00%.

With `CC(=O)N[C@H](CCC(N)=O)C(=O)NCC(=O)N[C@H](C)C(N)=O` [SEQ ID NO. 26, Ac-Q*GA*-NH2], in series [1], the “stability compared with PEPITEM” value is “at least as stable” and the half-life is > 3 h. Besides, the IC50 in series [3] was 0.018 nM.

The compound `C[C@@H](NC(=O)CNC(=O)[C@H]1CCC(=O)N1)C(N)=O` [SEQ ID NO. 28, pE*GA*-NH2] ([d(pGlu)]-Gly-[dA]-NH2) came in with a half-life in series [4] of 1.17 h.

Take `CNC(=O)[C@H](C)NC(=O)CNC(=O)[C@@H]1CCC(=O)N1` [SEQ ID NO. 29, pEGA-NHMe] ([pGlu]-Gly-Ala-NHMe): in series [3], the “% Inhibition (0.3 nM)” value is given as 40.89% and the “% Inhibition (3 nM)” value was 43.35%. This compound yielded a half-life in series [4] (whole blood) of 1.62 h.

`C[C@H](NC(=O)CNC(=O)[C@@H]1CCC(=O)N1)C(=O)N(C)C` [SEQ ID NO. 30, pEGA-N(Me)2] ([pGlu]-Gly-Ala-NMe2): in series [3], the “% Inhibition (0.3 nM)” value was 44.70% and the “% Inhibition (3 nM)” value worked out at 42.65%. In addition, the half-life in series [4] (whole blood) was > 3 h.

`CC(C)[C@H](NC(=O)CNC(=O)[C@@H]1CCC(=O)N1)C(N)=O` [SEQ ID NO. 31, pEGV-NH2] ([pGlu]-Gly-Val-NH2): in series [3], the “% Inhibition (0.3 nM)” value is 49.94% and the “% Inhibition (3 nM)” value is recorded as 50.27%. Further, the half-life in series [4] (whole blood) is > 3 h.

As for `CC(C)C[C@H](NC(=O)CNC(=O)[C@@H]1CCC(=O)N1)C(N)=O` [SEQ ID NO. 32, pEGL-NH2] ([pGlu]-Gly-Leu-NH2), in series [3], the “% Inhibition (0.3 nM)” value was found to be 25.34% and the “% Inhibition (3 nM)” value is on record as 58.16%.

Consider `NC(=O)[C@H](Cc1ccccc1)NC(=O)CNC(=O)[C@@H]1CCC(=O)N1` [SEQ ID NO. 33, pEGF-NH2] ([pGlu]-Gly-Phe-NH2), for which, in series [3], the “% Inhibition (0.3 nM)” value is given as 49.15% and the “% Inhibition (3 nM)” value was 42.84%. The same compound had a half-life in series [4] (whole blood) of 2.43 h.

Take EGA: in series [2], the “eye tissue in which the peptide was found by mass spectrometry” value is on record as “Retina only”.

Regarding H-S*V*T*-NH2 [SEQ ID NO. 10], in series [3], the “% Inhibition (0.3 nM)” value stood at 24.76% and the “% Inhibition (3 nM)” value came out at 39.51%.

On to H-S*VT-NH2 [SEQ ID NO. 7], for which, in series [3], the “% Inhibition (0.3 nM)” value is given as 9.50%.

SVTQAA [SEQ ID NO. 40] gave a PBL transmigration in series [3] (PBL0 37%, FIG. 4) of 23%. The “effect on PBL transmigration” value in series [3] (compared to untreated PBL (PBL0), 20 ng/ml) is reported as “significant (p<0.01) fall in PBL transmigration”.

Regarding TSV, the “ALP activity (maturation mineralisation), murine osteoblasts” value in series [5] is on record as “significantly increased”.

For orientation: half-life means the time needed for the level to fall by half in the phase considered. Lower therefore signals rapid decline. For orientation: IC50 means the point on the concentration scale where inhibition reaches its midpoint. The low end stands for higher potency, the high end for lower potency.
